Where two headings read alike, the source gives them in different places.
Experiments:
A375-melanoma cells = assay: Cytotoxicity in cultured A375-melanoma cells (XTT cell viability); format: cell-based; conditions: Homo sapiens, read-out: IC50 (drug concentration that inhibited 50% of the cell growth)
Procedure: Cells were grown in RPMI 1640 (Gibco, UK) supplemented with 10% FBS (Gibco, UK) 2 mM of L-glutamin (Gibco, UK), 20 mM HEPES buffer (Beit-Haemek, Israel), 100 units/ml of penicillin, and 100 μg/ml of streptomycin (Gibco, UK). Cells were cultured in humidified atmosphere containing 5% CO2 at 37° C. Medium was routinely changed twice a week, and cells were sub-cultured with 0.25% trypsin/EDTA (Beit-Haemek, Israel) when reaching 85% confluence.
ATT-11T was produced by Aptuit-Laurus (India). The compound was dissolved in DMSO. […] The cells were incubated for 24 hours at 37° C. with serial dilutions of ATT-11T (or CPT 11), dissolved in growing medium. Cell viability was then determined, using the XTT reagent (Beit-Haemek, Israel). At the end of the incubation period, tetrazolium dye was added, and formation of a colored product formazan was measured at 450 nm using a microplate reader (ELx800, Bio-Tek instruments Inc.). Cell viability vs. drug concentration was plotted, and data were fitted with a non-linear regression analysis using GraphPad prisma ver.5.0 software. […]

A375 melanoma tumors = assay: Xenograft model of melanoma: tumor regression, growth inhibition and growth delay; format: in vivo, athymic nude mice; conditions: for Tumor volume inhibition (TVI): one week after the last dose; for tumor growth at day 30 after the last dose: 58 days after tumor cell inoculation; for growth inhibition: one week after last administration
Procedure: Tumor-bearing mice, injected only with the vehicle solution served as controls.
ATT11-T (Aptuit-Luarus, India) was administered in a vehicle as described above. Tumor-bearing mice injected only with the vehicle solution served as controls. […] Tumor volume was evaluated as described above.
Drug-induced delay in tumor growth was assessed by two measures: (i). Tumor volume inhibition (TVI %) at one week after the last treatment in treated versus control tumors, which was calculated according to the Formula TVI (%)=(1-T/C)×100, where T and C are the tumor volume of the treated and control groups, respectively; and (ii). Tumor growth delay (TGD), assessed as the time period (days) of treatment-induced delay in tumor reaching a pre-determined volume of 3,500 mm^3, as compared to the vehicle-treated controls.

[1] = Adverse effects and body weight in A375 tumor-bearing mice; format: in vivo, nude mice; conditions: for gain of initial body weight: day 1 of treatment up to day 29 of inoculation
Procedure: For the evaluation of potential adverse effects of ATT-11T, nude mice, bearing the A375 melanoma tumors and treated with ATT-11T as described above, were monitored for adverse effects immediacy after drug administration, and also twice a week, through one day after last dose. The evaluation protocol consisted of gross observation, registration of abnormal signs, and determination of body weight. Potential body weight loss (BWL) was calculated as % BWL=100−(BWdays/BWday1×100), where day 1 is the first day of treatment and day x is the day of assessment thereafter.

[2] = Pharmacokinetics after single intravenous administration; format: in vivo, beagle dogs; conditions: 6 mg/kg single i.v.
Procedure: The stock solution was diluted 10-fold in 10% bovine serum albumin solution in 0.1M sodium phosphate buffer (pH 5.8) and mixed by vortex until a homogeneous emulsion was obtained. […] Fresh formulations of both drugs were prepared prior to each administration, and the drugs were administrated by a slow bolus injection within approximately 3 minutes, at a dose of 6 mg/kg (1.2 ml/kg), adjusted to the individual animal body weight.
Plasma was separated by centrifugation, and stored at −70° C. until HPLC analysis. WinNonlin™ software was used for the analysis of the pharmacokinetic data.

[3] = system: SW-620 colorectal carcinoma tumors; format: in vivo, athymic nude mice; conditions: for tumor growth inhibition: one week after the last administration
Procedure: Drug treatment was initiated on day 11, when tumors reached an average volume of 119 mm^3 ATT-11T was administered in a vehicle comprising 5% DMSO, 5% NMP, 10% ETOH, 40% PEG-400 and 40% PG. […] The drugs were administered intraperitoneally.

[4] = system: OVCAR-3 ovarian carcinoma tumors; assay: Xenograft model of ovarian carcinoma; format: in vivo, athymic nude mice; conditions: for growth inhibition vs. the control group: one week post last administration
Excerpt: Tumor-bearing mice, injected only with the vehicle solution served as the control group.

[5] = Maximal tolerated dose (MTD); conditions: female, athymic nude, mouse, in vivo, ip; intraperitoneally, once a week for three weeks, nude mice; read-out: maximal tolerate dose (MTD)
Procedure: Drug treatment was initiated on day 11, when tumors reached an average volume of 119 mm^3 ATT-11T was administered in a vehicle comprising 5% DMSO, 5% NMP, 10% ETOH, 40% PEG-400 and 40% PG. […] . […] The drugs were administered intraperitoneally.

[6] = system: Mia-PaCa pancreatic carcinoma tumors; assay: Xenograft model of pancreatic carcinoma
H-82 SCLC tumors = assay: Xenograft model of small-cell lung carcinoma
[7] = 20 mg/kg i.v. once a week for 3 weeks
[8] = 40 mg/kg i.v. once a week for 3 weeks

CCc1c2c(nc3ccc(OC(=O)N4CCC(CCC(C)(COC(C)(C)C)COC(C)(C)C)CC4)cc13)-c1cc3c(c(=O)n1C2)COC(=O)C3(O)CC (centres unmarked) [ATT-11T]
IC50 (A375-melanoma cells; A-375, 24 h): 3.3 µM | Tumor volume inhibition (TVI) (A375 melanoma tumors; 5 mg/kg i.v. twice a week for three weeks): 100% | tumor growth at day 30 after the last dose (A375 melanoma tumors; 5 mg/kg): little | Tumor volume inhibition (TVI) (A375 melanoma tumors; 20 mg/kg i.v. twice a week for three weeks): 100% | tumor growth at day 30 after the last dose (A375 melanoma tumors; 20 mg/kg): no growth | growth inhibition (A375 melanoma tumors; ATT-11T 5 mg/kg i.v. three times a week for three weeks): 100% | growth inhibition (A375 melanoma tumors; ATT-11T 20 mg/kg i.v. three times a week for three weeks): 100% | gain of initial body weight ([1]; 5 mg/kg): 7% | gain of initial body weight ([1]; 20 mg/kg): 5% | tolerability (adverse effects, weight loss) ([1]; both doses, 5 and 20 mg/kg): well-tolerated | plasma level of derived SN-38 at 48 hours after administration ([2]; dogs): still detectable | AUC of ATT-11T relative to that of CPT-11 ([2]; dogs, parent drug): 4 fold | increase in t1/2 of ATT-11T over CPT-11 ([2]; dogs, parent drug): 3.8 fold | half-life ([2]; dog, in vivo, iv, female beagle dogs, read-out: plasma half-life (t1/2) of the parent drug (converted)): 25.6 h | tumor growth 136 days post last treatment (161 days post tumor inoculation) ([3]; MTD 150 mg/kg i.p.): no tumor growth | tumor growth inhibition ([3]; MTD 150 mg/kg intraperitoneally once a week for three weeks): 100% | growth inhibition vs. the control group ([4]; 20 mg/kg i.v. once a week for three weeks): 99% | average tumor volume ([4]; 20 mg/kg i.v., day 42 (21 days post last dose)): 46 mm^3 | MTD at 3 weeks [5]: 150 mg/kg | % tumor growth delay (% TGD) to 1,000 mm^3 [6, 7]: 86% | days post tumor inoculation to reach average tumor volume of 1,000 mm^3 [6, 7]: 39 days | tumor growth inhibition (TGI) ([6]; 20 mg/kg i.v. once a week for 3 weeks, one week after the last administration): 48% | % tumor growth delay (% TGD) to 1,000 mm^3 [6, 8]: 152% | days post tumor inoculation to reach average tumor volume of 1,000 mm^3 [6, 8]: 53 days | tumor growth inhibition (TGI) vs. control tumors ([6]; 40 mg/kg i.v. once a week for 3 weeks, one week after the last administration): 86% | tumor growth inhibition vs. the control group (H-82 SCLC tumors; 40 mg/kg i.v. once a week for three weeks): 92%

CCc1c2c(nc3ccc(OC(=O)N4CCC(N5CCCCC5)CC4)cc13)-c1cc3c(c(=O)n1C2)COC(=O)[C@]3(O)CC [CPT-11, irinotecan, reference compound]
IC50 (A375-melanoma cells; A-375, A375 cells, 24 hours incubation, XTT): 10.1 µM | plasma level of derived SN-38 at 24 hours after administration ([2]; dogs): below detection level | tumor growth inhibition ([3]; […]): 85% | growth inhibition vs. the control group ([4]; 18 mg/kg i.v. once a week for three weeks): 83% | MTD [5]: 100 mg/kg | % tumor growth delay (% TGD) to 1,000 mm^3 ([6]; 18 mg/kg i.v. (equimolar to 20 mg/kg ATT-11T)): 43% | % tumor growth delay (% TGD) to 1,000 mm^3 ([6]; 36 mg/kg i.v. (equimolar to 40 mg/kg ATT-11T)): 76% | tumor growth inhibition (TGI) vs. control tumors ([6]; 36 mg/kg i.v. once a week for 3 weeks, one week after the last administration): 42% | tumor growth inhibition vs. the control group (H-82 SCLC tumors; 36 mg/kg i.v. once a week for three weeks): 67%

— patent US9192680B2, “Pharmaceutical compounds” (APOSENSE LTD., priority 2010, dated 2015)
